Results reported in patent US20230301933A1 (priority 2020, published 2023).
Read-outs that look alike come from different tables or passages of the source.

Legend:
[1] = Procedure: In an particularly attractive embodiment, the phenol is injected subcutaneously, i.e. in the soft tissue below the skin with a depth of up to 0.5-2.0 cm.
In another attractive embodiment, the phenol is administered intravenously.

[2] = insulin comprising 0.2 to 1.0 mg per dose phenol as preservative; cited from earlier work
Virus Induced Pneumonia = system: Virus Induced Pneumonia
Description: Subject 1 was a person, weight 85 kg, pre-condition asthma. […] Pre-treatment history:
Self-treatment with Ventolin and paracetamol. […] Sixth day. […] Patient thinks that the problem is serious, and contacts GP.
Treatment started for 9 consecutive days by four subcutaneous injections of a 0.06 w/w % phenol in physiological saline daily administered in: 1 and 2) the posterior margin of the sternocleidomastoid muscle on the level of the larynx knot at both left and right side of the body, each about 1 cm deep; 3) the middle of the upper socket of the sternum about 0.5 cm deep, and 4) the depression below the spinous process of the 7th cervical vertebra, about 0.5 cm deep. First day of treatment is set as ‘Day 1’

Early Stage CoViD-19 = system: Early Stage CoViD-19
Description: Subject 2, suffering early stage CoViD-19. Former professional sportsman (soccer), doesn't smoke, no alcohol, weight 75 kg. Pre-treatment history. […] Came to GP for treatment.
Treatment for four consecutive days of four subcutaneous injections as described for patient 1. First day of treatment is set as ‘Day 1’.

MRSA Lung Infection = system: MRSA Lung Infection
Procedure: Person, 88 kg, dyspnoea, cough, chest pain and fever, under urine catheter. Has used different antibiotic before and after operation prostate cancer and by lung infection.
Phenol reduce to 0.02% 15 ml. duration 10 minutes for 5 more days.

Critical Stage Covid-19 = system: Critical Stage Covid-19
Procedure: Treated with concentration phenol 0.01% in 60 ml, drip infusion 20 minutes, once daily.
Day 6 lowered dose to 0.01% concentration in 30 ml. Stopped treatment after treatment day 9.

Flu Pneumonia = conditions: human, in vivo
[3] = Day 1 (first day of treatment), four s.c. injections 0.06 w/w % phenol daily
[4] = at end of treatment (3 days normal body temperature), phenol 0.01% drip infusion once daily
[5] = day1, phenol 0.02% (in 30 ml), drip 15 minutes
[6] = day2, phenol 0.02% (in 30 ml), drip 15 minutes
[7] = day3, phenol 0.02% (in 30 ml), drip 15 minutes
[8] = day4, phenol 0.02% (in 30 ml), drip 15 minutes
[9] = day5, phenol 0.02% (in 30 ml), drip 15 minutes
[10] = day6, phenol 0.02% (in 15 ml), drip 10 minutes
[11] = day7, phenol 0.02% (in 15 ml), drip 10 minutes
[12] = day8, phenol 0.02% (in 15 ml), drip 10 minutes
[13] = day9, phenol 0.02% (in 15 ml), drip 10 minutes

Oc1ccccc1 [phenol]
Duration of immediate effect ([1]; intravenous administration): 7 to 14 days | Time phenol may remain in the body ([1]; intravenous administration): about 24 hours | Duration of immediate effect ([1]; subcutaneous injection): about 7 days | Time phenol may remain in the body ([1]; subcutaneous injection): about 24 hours | Accumulation of phenol in the body by daily use [2]: no significant accumulation | Side effects after injection (Virus Induced Pneumonia; 9 consecutive days of s.c. injections): slight headache, no other side effect after injection | Temperature (Virus Induced Pneumonia; [3]): 38.1 °C | Short breath (Virus Induced Pneumonia; Day 2): Limited feeling of short breath and asthma | Temperature (Virus Induced Pneumonia; Day 2, four s.c. injections 0.06 w/w % phenol daily): 37.6 °C | Short breath (Virus Induced Pneumonia; Day 3): Less short breath | Temperature (Virus Induced Pneumonia; Day 3): 37.4 °C | Short breath (Virus Induced Pneumonia; Day 4): Short breath much better | Temperature (Virus Induced Pneumonia; Day 4): 37.4 °C | Short breath (Virus Induced Pneumonia; Day 5): Short breath slightly better | Temperature (Virus Induced Pneumonia; Day 5): 37.4 °C | Short breath (Virus Induced Pneumonia; Day 6): No more short breath | Temperature (Virus Induced Pneumonia; Day 6): 37.0 °C | Breathing (Virus Induced Pneumonia; Day 7): Breathing normal | Fever (Virus Induced Pneumonia; Day 7): No fever | Fever (Virus Induced Pneumonia; Day 8): No fever | Temperature (Early Stage CoViD-19; [3]): 38.4 °C | Temperature (Early Stage CoViD-19; Day 2): 37.2 °C | Temperature (Early Stage CoViD-19; Day 3): 36.8 °C | Temperature (Early Stage CoViD-19; Day 4): normal | Temperature (Early Stage CoViD-19; Day 5): normal | Duration of slight headache after treatment (Early Stage CoViD-19; after first treatment): about four | Time the slight cough remained (Early Stage CoViD-19; counted from Day 5, then fully gone): 5 days | Side effects (Early Stage CoViD-19; four consecutive days of s.c. injections): No other side effects noted | Injection location reaction (Early Stage CoViD-19; s.c. injection): slight pain at injection | X-lung: pneumonia (MRSA Lung Infection; Day 18th): almost recovered | Fever (temperature), reduced from 38.0 (MRSA Lung Infection; after 0.02% phenol 30 ml infusion once per day for 3 days): 37.4 °C | Temperature (MRSA Lung Infection; during 0.02% phenol 15 ml, 10 minutes, for 5 more days): under 37 °C | R/R (Critical Stage Covid-19; [4]): 20 | SPO2 (Critical Stage Covid-19; [4]): 97% | R/R (Critical Stage Covid-19; [5]): 41 | SpO2 (Critical Stage Covid-19; [5]): 91% | body temperature (Critical Stage Covid-19; [5]): 37.6 °C | R/R (Critical Stage Covid-19; [6]): 32 | SpO2 (Critical Stage Covid-19; [6]): 93% | body temperature (Critical Stage Covid-19; [6]): 38.6 °C | R/R (Critical Stage Covid-19; [7]): 27 | SpO2 (Critical Stage Covid-19; [7]): 94% | body temperature (Critical Stage Covid-19; [7]): 38.5 °C | R/R (Critical Stage Covid-19; [8]): 23 | SpO2 (Critical Stage Covid-19; [8]): 96% | body temperature (Critical Stage Covid-19; [8]): 38.0 °C | R/R (Critical Stage Covid-19; [9]): 22 | SpO2 (Critical Stage Covid-19; [9]): 96% | body temperature (Critical Stage Covid-19; [9]): 37.4 °C | day 6 evaluation: breathing (Critical Stage Covid-19; day 6): day 6 evaluation patient breaths normally, still stress, coughing, feels good, day 6 started walking (with infusion) | temperature, R/R, SpO2 (Critical Stage Covid-19; day 6): normal | R/R (Critical Stage Covid-19; [10]): 20 | SpO2 (Critical Stage Covid-19; [10]): 97% | body temperature (Critical Stage Covid-19; [10]): 37.0 °C | R/R (Critical Stage Covid-19; [11]): 20 | SpO2 (Critical Stage Covid-19; [11]): 97% | body temperature (Critical Stage Covid-19; [11]): 36.8 °C | R/R (Critical Stage Covid-19; [12]): 20 | SpO2 (Critical Stage Covid-19; [12]): 97% | body temperature (Critical Stage Covid-19; [12]): 36.9 °C | day 9 evaluation: body temperature (Critical Stage Covid-19; day 9): day 9 evaluation patients three days normal body temperature. | R/R (Critical Stage Covid-19; [13]): 18 | SpO2 (Critical Stage Covid-19; [13]): 97% | body temperature (Critical Stage Covid-19; [13]): 36.8 °C | Time after start of treatment at which improvement of R/R and SpO2 was measured (Critical Stage Covid-19; drip infusion once daily): 6 h | Breathing (Flu Pneumonia): breaths quietly | Patient outcome (Flu Pneumonia): physical recovered with some cough | X-lung infiltrate (Flu Pneumonia): much improved | Fever (temperature) (Flu Pneumonia; iv): 36.8-37.5 °C | Heartbeat (Flu Pneumonia; iv): about 90 per minute
